Structures are written as SMILES.

The record followed here is patent US9062024B2, “Nitrogen-containing heterocyclic compound and salt thereof, and a fungicide for agricultural and horticultural use” (Nippon Soda Co., Ltd., priority 2009, dated 2015).

Usually melting point stands for the temperature, or range, at which the solid turns liquid. `c1ccc2c(c1)NCCN=C2c1cnc2ccccc2c1` yielded a melting point of 201 to 202 °C. `CC(=O)N1CCN=C(c2cnc3ccccc3c2)c2ccccc21` yielded a melting point of 187 to 189 °C. The value for `CC1(C)CN=C(c2cnc3ccccc3c2)c2ccccc2C1` [Compound B2-3, 4,4-dimethyl-1-(3-quinolinyl)-4,5-dihydro-3H-2-benzazepine] was 115 to 116 °C. `CC1(C)CCN=C(c2cnc3ccccc3c2)c2ccccc21` [Compound B2-25, 5,5-dimethyl-1-(3-quinolinyl)-4,5-dihydro-3H-2-benzazepine] displayed a melting point of 121 to 123 °C.
